Measured values taken from US20250042922A1, “KRAS MODULATING COMPOUNDS” (priority 2023, published 2025).

How the values were obtained:
[1] = test system: cellular pERK in ASPC-1 (KRAS G12D) cells; test: Cell based pERK assay, ASPC-1; conditions: Homo sapiens, ASPC1; ASPC-1 (KRAS G12D), 2 hours incubation, HTRF phospho-ERK1/2; read-out: AsPC1 pERK EC50
Experimental: (§1) Compounds were tested in a 384-well assay format for their ability to inhibit cellular pERK in Kuramochi (WT KRAS), MIA-PaCa-2 (KRAS-G12C), ASPC-1 (KRAS G12D), and NCI-H441 (KRAS-G12V) cell-lines. Compounds were serially diluted (1:3) in DMSO. On day −1, 80 μL of cells were plated per well in the 384 well tissue-culture plates (Greiner: Cat #781080) to seed 5000 cells per wells of AsPC-1 or 7500 cells of MIA-PaCa-2, NCI-H441, and Kuramochi cell lines in RPMI (Corning: Cat #10-040-CM) with 10% fetal bovine serum (FBS) (HyClone: Cat #SH30071-03) and 1× penicillin-streptomycin-glutamate (PSG) (Corning: Cat #30-009-CI) for […] and Kuramochi cell lines and DMEM (Corning: Cat #15-018-CM) with 10% FBS and 1×PSG for MIA-PaCa-2 cell line. The plates were then incubated overnight at 37° C. and 5% CO2. On day 0, 400 nL of compound/well was added into the cell plates and mixed 5 times by pipetting using a Beckmann Biomek FX. The cell plates were then incubated for 2 hours at 37° C. and 5% CO2. HTRF Advanced Phospho-ERK1/2 (THR202/TYR204) Detection Kits (PerkinElmer: Cat #64AERPEG) were used to prepare the lysis and detection solution according to manufacturer protocol. Following the 2 hour incubation, 70 μL of medium was aspirated from the plates and 10 uL of lysis and detection solution was added to the plates using a Biotek EL406 washer and dispenser. Plates were sealed and stored overnight at room temperature. HTRF ratio (665 nm/615 nm) was read by Envision multimode reader (PerkinElmer) the next day. The TR-FRET ratios were normalized to a positive (saturating concentration of known inhibitor) and negative (DMSO) control and plotted against the log of compound concentration.

[2] = test system: cellular pERK in NCI-H441 (KRAS-G12V) cells; test: Cell based pERK assay, NCI-H441; conditions: Homo sapiens; NCI-H441 (KRAS-G12V), 2 hours incubation, HTRF phospho-ERK1/2; read-out: H441 PERK EC50
Experimental: as §1

[3] = test system: cellular pERK in MIA-PaCa-2 (KRAS-G12C) cells; test: Cell based pERK assay, MIA-PaCa-2; conditions: Homo sapiens; MIA-PaCa-2 (KRAS-G12C), 2 hours incubation, HTRF phospho-ERK1/2; read-out: MIAPaCa2 pERK EC50
Experimental: as §1

[4] = test system: cellular pERK in Kuramochi (WT KRAS) cells; test: Cell based pERK assay, Kuramochi; conditions: Kuramochi (WT KRAS), 2 hours incubation, HTRF phospho-ERK1/2; read-out: Kuramochi pERK EC50
Experimental: as §1

| SMILES | EC50 [1] [nM] | EC50 [2] [nM] | EC50 [3] [nM] | EC50 [4] [nM] |
| --- | --- | --- | --- | --- |
| C#Cc1c(F)ccc2cc(N)cc(-c3nc4c5c(nc(OC[C@@]67CCCN6CC(=C)C7)nc5c3F)N3C[C@@]5(F)CC[C@](F)(N5)[C@H]3CCC4)c12 [Example 4-38, 5-ethynyl-6-fluoro-4-((6aR,7R,10S)-1,7,10-trifluoro-13-(((S)-2-methylenetetrahydro-1H-pyrrolizin-7a(5H)-yl)methoxy)-5,6,6a,7,8,9,10,11-octahydro-4H-3,11a,12,14,15-pentaaza-7,10-methanocyclohepta[4,5]cycloocta[1,2,3-de]naphthalen-2-yl)naphthalen-2-amine] | 2.2 | 1.01 | 0.134 | 2.69 |
| C#Cc1c(F)ccc2c(F)c(N)cc(-c3nc4c5c(nc(OCC67CCCN6CCC7)nc5c3F)N3C[C@@]5(F)CC[C@](F)(N5)[C@H]3CCC4)c12 [Example 4-18, 5-ethynyl-1,6-difluoro-4-((6aR,7R,10S)-1,7,10-trifluoro-13-((tetrahydro-1H-pyrrolizin-7a(5H)-yl)methoxy)-5,6,6a,7,8,9,10,11-octahydro-4H-3,11a,12,14,15-pentaaza-7,10-methanocyclohepta[4,5]cycloocta[1,2,3-de]naphthalen-2-yl)naphthalen-2-amine] | 388 | – | 22.3 | 13.3 |
| CCc1c(F)ccc2cc(N)cc(-c3nc4c5c(nc(OCC67CCCN6CCC7)nc5c3F)N3C[C@@]5(F)CC[C@](F)(N5)[C@H]3CCC4)c12 [Example 6-2, 5-ethyl-6-fluoro-4-((6aR,7R,10S)-1,7,10-trifluoro-13-((tetrahydro-1H-pyrrolizin-7a(5H)-yl)methoxy)-5,6,6a,7,8,9,10,11-octahydro-4H-3,11a,12,14,15-pentaaza-7,10-methanocyclohepta[4,5]cycloocta[1,2,3-de]naphthalen-2-yl)naphthalen-2-amine] | 456 | – | 22.6 | 6.48 |
| CCc1c(F)ccc2cc(O)cc(-c3nc4c5c(nc(OCC67CCCN6CCC7)nc5c3F)N3C[C@@]5(F)CC[C@](F)(N5)[C@@H]3[C@@H](C)C4)c12 [Example 6-3, 5-ethyl-6-fluoro-4-((8S,8aS,9R,12S)-4,9,12-trifluoro-8-methyl-2-((tetrahydro-1H-pyrrolizin-7a(5H)-yl)methoxy)-7,8,8a,9,10,11,12,13-octahydro-1,3,6,13a,14-pentaaza-9,12-methanonaphtho[1,8-ab]heptalen-5-yl)naphthalen-2-ol] | 20 | – | 0.513 | 6.62 |
| C#Cc1c(F)ccc2cc(N)cc(-c3nc4c5c(nc(OC[C@@]67CCCN6C[C@H](F)C7)nc5c3F)N3C[C@@]5(F)CC[C@H](N5)[C@@H]3[C@@H](C)[C@H]4C)c12 [Example 4-37, 4-((4R,5S,5aS,6S,9S)-1,9-difluoro-12-(((2R,7aS)-2-fluorotetrahydro-1H-pyrrolizin-7a(5H)-yl)methoxy)-4,5-dimethyl-4,5,5a,6,7,8,9,10-octahydro-3,10a,11,13,14-pentaaza-6,9-methanonaphtho[1,8-ab]heptalen-2-yl)-5-ethynyl-6-fluoronaphthalen-2-amine] | 4.65 | 0.475 | 0.153 | – |
| C#Cc1c(F)ccc2cccc(-c3nc4c5c(nc(OCC67CCCN6CCC7)nc5c3F)N3C[C@@]5(F)CC[C@](F)(N5)[C@@H]3[C@@H](C)C4)c12 [Example 4-31, (5S,5aS,6R,9S)-2-(8-ethynyl-7-fluoronaphthalen-1-yl)-1,6,9-trifluoro-5-methyl-12-((tetrahydro-1H-pyrrolizin-7a(5H)-yl)methoxy)-4,5,5a,6,7,8,9,10-octahydro-3,10a,11,13,14-pentaaza-6,9-methanonaphtho[1,8-ab]heptalene] | 38.1 | – | 2.19 | 1.36 |
| CCc1c(F)ccc2cc(N)cc(-c3nc4c5c(nc(OCC67CCCN6CCC7)nc5c3F)N3C[C@@]5(F)CC[C@](F)(N5)[C@@H]3[C@@H](C)C4)c12 [Example 6-4, 5-ethyl-6-fluoro-4-((8S,8aS,9R,12S)-4,9,12-trifluoro-8-methyl-2-((tetrahydro-1H-pyrrolizin-7a(5H)-yl)methoxy)-7,8,8a,9,10,11,12,13-octahydro-1,3,6,13a,14-pentaaza-9,12-methanonaphtho[1,8-ab]heptalen-5-yl)naphthalen-2-amine] | 197 | – | 12.8 | 8.24 |
| C#Cc1c(F)ccc2cc(O)cc(-c3nc4c5c(nc(OCC67CCCN6CCC7)nc5c3F)N3C[C@@]5(F)CC[C@](F)(N5)[C@H]3CCC4)c12 [Example 4-5, 5-ethynyl-6-fluoro-4-((6aR,7R,10S)-1,7,10-trifluoro-13-((tetrahydro-1H-pyrrolizin-7a(5H)-yl)methoxy)-5,6,6a,7,8,9,10,11-octahydro-4H-3,11a,12,14,15-pentaaza-7,10-methanocyclohepta[4,5]cycloocta[1,2,3-de]naphthalen-2-yl)naphthalen-2-ol] | 10.1 | – | 0.397 | 6.47 |
| C#Cc1c(F)c(F)cc2cc(O)cc(-c3nc4c5c(nc(OCC67CCCN6CCC7)nc5c3F)N3C[C@@]5(F)CC[C@](F)(N5)[C@@H]3[C@@H](C)C4)c12 [Example 4-33, 5-ethynyl-6,7-difluoro-4-((5S,5aS,6R,9S)-1,6,9-trifluoro-5-methyl-12-((tetrahydro-1H-pyrrolizin-7a(5H)-yl)methoxy)-4,5,5a,6,7,8,9,10-octahydro-3,10a,11,13,14-pentaaza-6,9-methanonaphtho[1,8-ab]heptalen-2-yl)naphthalen-2-ol] | 12.4 | – | 0.286 | 8.68 |
| C#Cc1c(F)ccc2cc(N)cc(-c3nc4c5c(nc(OC[C@@]67CCCN6C[C@H](F)C7)nc5c3F)N3C[C@@]5(F)CC[C@](F)(N5)[C@H]3CCC4)c12 [Example 4-2, 5-ethynyl-6-fluoro-4-((6aR,7R,10S)-1,7,10-trifluoro-13-(((2R,7aS)-2-fluorotetrahydro-1H-pyrrolizin-7a(5H)-yl)methoxy)-5,6,6a,7,8,9,10,11-octahydro-4H-3,11a,12,14,15-pentaaza-7,10-methanocyclohepta[4,5]cycloocta[1,2,3-de]naphthalen-2-yl)naphthalen-2-amine] | 20 | 3.04 | – | 2.89 |
| N#Cc1c(F)ccc2cc(O)cc(-c3nc4c5c(nc(OCC67CCCN6CCC7)nc5c3F)N3C[C@@]5(F)CC[C@](F)(N5)[C@H]3CCC4)c12 [Example 4-9, 2-fluoro-6-hydroxy-8-((6aR,7R,10S)-1,7,10-trifluoro-13-((tetrahydro-1H-pyrrolizin-7a(5H)-yl)methoxy)-5,6,6a,7,8,9,10,11-octahydro-4H-3,11a,12,14,15-pentaaza-7,10-methanocyclohepta[4,5]cycloocta[1,2,3-de]naphthalen-2-yl)-1-naphthonitrile] | 323 | – | 6.08 | 13.2 |
| Nc1cc(-c2nc3c4c(nc(OCC56CCCN5CCC6)nc4c2F)N2C[C@@]4(F)CC[C@](F)(N4)[C@H]2CCC3)c2c(Cl)c(F)ccc2c1 [Example 5-2, 5-chloro-6-fluoro-4-((6aR,7R,10S)-1,7,10-trifluoro-13-((tetrahydro-1H-pyrrolizin-7a(5H)-yl)methoxy)-5,6,6a,7,8,9,10,11-octahydro-4H-3,11a,12,14,15-pentaaza-7,10-methanocyclohepta[4,5]cycloocta[1,2,3-de]naphthalen-2-yl)naphthalen-2-amine] | 338 | – | 17.7 | 4.4 |
| Oc1cc(-c2nc3c4c(nc(OCC56CCCN5CCC6)nc4c2F)N2C[C@@]4(F)CC[C@](F)(N4)[C@H]2CCC3)c2c(F)c(F)ccc2c1 [Example 4-22, 5,6-difluoro-4-[(4S,7R,8R)-4,7,15-trifluoro-18-(1,2,3,5,6,7-hexahydropyrrolizin-8-ylmethoxy)-2,13,17,19,21-pentazapentacyclo[10.7.1.14,7.02,8.016,20]henicosa-1(19),12(20),13,15,17-pentaen-14-yl]naphthalen-2-ol] | 83.4 | – | 2.03 | 4.1 |
